Source: ChEMBL document CHEMBL1151975, “Isolation, structure, and antibacterial activities of lucensimycins D-G, discovered from Streptomyces lucensis MA7349 using an antisense strategy” (2009)
In brackets after ≈: the same amount, converted by molar mass. Activity calls are given as the source filed them. No cut-off for these calls is given here.

How the values were obtained:
Streptomyces noursei = assay: Antimicrobial activity against Streptomyces albulus MJ202-72F3; assay type: functional
Streptococcus pneumoniae = assay: Antimicrobial activity against Streptococcus pneumoniae CL 2883; assay type: functional
Staphylococcus aureus [1] = assay: Antimicrobial activity against Staphylococcus aureus Smith at 250 ug/ml; assay type: functional, organism-based
Staphylococcus aureus [2] = assay: Antimicrobial activity against Staphylococcus aureus bearing antisense rpsD gene by two-plate assay; assay type: functional
Staphylococcus aureus [3] = assay: Antimicrobial activity against Staphylococcus aureus Smith; assay type: functional
Escherichia coli = assay: Antimicrobial activity against Escherichia coli at 250 ug/ml; assay type: functional, organism-based
Enterococcus faecalis = assay: Antimicrobial activity against Enterococcus faecalis at 250 ug/ml; assay type: functional, organism-based
Bacillus subtilis = assay: Antimicrobial activity against Bacillus subtilis at 250 ug/ml; assay type: functional, organism-based
Haemophilus influenzae = assay: Antimicrobial activity against Haemophilus influenzae at 250 ug/ml; assay type: functional, organism-based
Candida albicans = assay: Antimicrobial activity against Candida albicans at 250 ug/ml; assay type: functional, organism-based
Staphylococcus aureus [4] = assay: Antimicrobial activity against Staphylococcus aureus EP167 at 0.5 mg/ml by two-plate assay; assay type: functional, organism-based

CCC(O)C(C)/C=C/C=C/C(O)CC1C=CC2CC(C)CC(C)C2C1(C)C(=O)C1=C(O)C(OC)NC1=O (stereo not drawn) [DELAMINOMYCIN B]
MIC (Streptomyces noursei): 25 µg/mL (≈ 48.5 µM)

CC(=O)N[C@H](CSC[C@@H]1OC(=O)[C@@]2(C1=O)C(=O)[C@@]1(C)[C@@H](C=C[C@H]3[C@H](O)[C@@H](C)[C@H](OC(C)=O)C[C@@H]31)C[C@H]2/C=C/C=C/C=C/C(=O)O)C(=O)O [LUCENSIMYCIN D]
MIC (Streptococcus pneumoniae): 250 µg/mL (≈ 363 µM) | Activity (Staphylococcus aureus [1]): inactive | inhibition zone (IZ) (Staphylococcus aureus [2]): 12 mm

CC(=O)N[C@H](CSC[C@H]1OC(=O)[C@@]2(C1=O)C(=O)[C@@]1(C)[C@@H](C=C[C@H]3[C@H](O)[C@@H](C)[C@H](OC(C)=O)C[C@@H]31)C[C@H]2/C=C/C=C/C=C/C(=O)O)C(=O)O [LUCENSIMYCIN E]
MIC (Staphylococcus aureus [3]): 32 µg/mL (≈ 46.5 µM) | MIC (Streptococcus pneumoniae): 8 µg/mL (≈ 11.6 µM) | inhibition zone (IZ) (Staphylococcus aureus [2]): 12 mm

CC(=O)N[C@H](CSC[C@H]1OC(=O)[C@@]2(C1=O)C(=O)[C@@]1(C)[C@@H](C=C[C@H]3[C@H](O)[C@@H](C)[C@H](OC(C)=O)C[C@@H]31)C[C@H]2/C=C/C=C/C=C/C(=O)O)C(=O)N[C@H]1[C@@H](O[C@@H]2[C@@H](O)[C@H](O)[C@@H](O)[C@H](O)[C@@H]2O)O[C@@H](CO)[C@@H](O)[C@@H]1O
Activity (Streptococcus pneumoniae): inactive | Activity (Staphylococcus aureus [1]): inactive | Activity (Escherichia coli): inactive | Activity (Enterococcus faecalis): inactive | Activity (Bacillus subtilis): inactive | Activity (Haemophilus influenzae): inactive | Activity (Candida albicans): inactive | Activity (Staphylococcus aureus [4]): Active

CCC(O)C(C)/C=C/C=C/C(O)CC1C=CC2CC(C)CC(C)C2C1(C)C(=O)C1=C(O)CNC1=O (stereo not drawn) [DELAMINOMYCIN C]
MIC (Streptomyces noursei): 25 µg/mL (≈ 51.5 µM)

CC(=O)O[C@@H]1C[C@H]2[C@@H](C=C[C@H]3C[C@@H](/C=C/C=C/C=C/C(=O)O)[C@@]4(C(=O)O[C@@H](CO)C4=O)C(=O)[C@@]32C)[C@H](O)[C@H]1C
Activity (Streptococcus pneumoniae): inactive | Activity (Staphylococcus aureus [1]): inactive | Activity (Escherichia coli): inactive | Activity (Enterococcus faecalis): inactive | Activity (Bacillus subtilis): inactive | Activity (Haemophilus influenzae): inactive | Activity (Candida albicans): inactive

CC(=O)N[C@H](CSC[C@@H]1OC(=O)[C@@]2(C1=O)C(=O)[C@@]1(C)[C@@H](C=C[C@H]3[C@H](O)[C@@H](C)[C@H](OC(C)=O)C[C@@H]31)C[C@H]2/C=C/C=C/C=C/C(=O)O)C(=O)N[C@H]1[C@@H](O[C@@H]2[C@@H](O)[C@H](O)[C@@H](O)[C@H](O)[C@@H]2O)O[C@@H](CO)[C@@H](O)[C@@H]1O
Activity (Streptococcus pneumoniae): inactive | Activity (Staphylococcus aureus [1]): inactive | Activity (Escherichia coli): inactive | Activity (Enterococcus faecalis): inactive | Activity (Bacillus subtilis): inactive | Activity (Haemophilus influenzae): inactive | Activity (Candida albicans): inactive | Activity (Staphylococcus aureus [4]): Active

CCC(O)C(C)/C=C/C=C/C(O)CC1C=CC2CC(C)CC(C)C2C1(C)C(=O)C1=C(O)C(O)NC1=O (stereo not drawn) [DELAMINOMYCIN A]
MIC (Streptomyces noursei): 25 µg/mL (≈ 49.8 µM)

C=C(OC(=O)[C@@H]1C(=O)[C@@]2(C)[C@@H](C=C[C@H]3[C@H](O)[C@@H](C)[C@H](OC(C)=O)C[C@@H]32)C[C@H]1/C=C/C=C/C=C/C(=O)O)C(=O)O
Activity (Streptococcus pneumoniae): inactive | Activity (Staphylococcus aureus [1]): inactive | Activity (Escherichia coli): inactive | Activity (Enterococcus faecalis): inactive | Activity (Bacillus subtilis): inactive | Activity (Haemophilus influenzae): inactive | Activity (Candida albicans): inactive

C=C1OC(=O)[C@@]2(C1=O)C(=O)[C@@]1(C)[C@@H](C=C[C@H]3[C@H](O)[C@@H](C)[C@H](OC(C)=O)C[C@@H]31)C[C@H]2/C=C/C=C/C=C/C(=O)O [LUCENSIMYCIN A]
Activity (Streptococcus pneumoniae): inactive | Activity (Staphylococcus aureus [1]): inactive | Activity (Escherichia coli): inactive | Activity (Enterococcus faecalis): inactive | Activity (Bacillus subtilis): inactive | Activity (Haemophilus influenzae): inactive | Activity (Candida albicans): inactive | inhibition zone (IZ) (Staphylococcus aureus [2]): 12 mm | Activity (Staphylococcus aureus [4]): Active
